# Data as given in US20260364215A1, “Radiopharmaceutical Compositions Targeting Ephrin Type-A Receptor 2 and Uses Thereof” (PeptiDream Inc., priority 2022, published 2026).
# pKd: −log10 of the molar value. Where two headings read alike, the source gives them in different places. Numbered stars: 1 amine (or outer) side, 2 acyl side, 3 side chain; on linkers, the order of the positions; unused ones are H or OH. Bridge positions count the residues as written; N and C are the ends. Square brackets hold non-standard residues; d marks the D form. Side chains are listed from the residue outwards. Peptide text beside a SMILES is read from it. * marks the point of attachment. DOTA(Lu) = O=C1CN2CCN3CCN(CC(=O)*)CCN(CC2)CC(=O)[O][Lu]([O]1)[O]C(=O)C3; NH(1-deoxy-D-glucityl) = OC[C@@H](O)[C@@H](O)[C@H](O)[C@@H](O)CN*; DOTA = O=C(O)CN1CCN(CC(=O)O)CCN(CC(=O)*)CCN(CC(=O)O)CC1; Trp(1-Me,7-Cl) = Cn1cc(C[C@H](N)C(=O)O)c2cccc(Cl)c21; dPhe(3-CONH2) = NC(=O)c1cccc(C[C@@H](N)C(=O)O)c1; NMePhe(3-CN) = CN[C@@H](Cc1cccc(C#N)c1)C(=O)O; Piperazinyl(4-CH2COOH) = O=C(O)CN1CCN(*)CC1; Trp(1-Me) = Cn1cc(C[C@H](N)C(=O)O)c2ccccc21; NMe3Pal = CN[C@@H](Cc1cccnc1)C(=O)O; Gly(cBu) = N[C@H](C(=O)O)C1CCC1; NMeE = CN[C@@H](CCC(=O)O)C(=O)O; Aad = N[C@@H](CCCC(=O)O)C(=O)O; NMeN = CN[C@@H](CC(N)=O)C(=O)O; CO = O=C([*:1])[*:2]
# Target: T1, Recombinant Human EphA2 Fc Protein (Homo sapiens, UniProt P29317)
# T1 construct: purchased Elabscience
# T1 sequence (P29317 24-534 limits assumed): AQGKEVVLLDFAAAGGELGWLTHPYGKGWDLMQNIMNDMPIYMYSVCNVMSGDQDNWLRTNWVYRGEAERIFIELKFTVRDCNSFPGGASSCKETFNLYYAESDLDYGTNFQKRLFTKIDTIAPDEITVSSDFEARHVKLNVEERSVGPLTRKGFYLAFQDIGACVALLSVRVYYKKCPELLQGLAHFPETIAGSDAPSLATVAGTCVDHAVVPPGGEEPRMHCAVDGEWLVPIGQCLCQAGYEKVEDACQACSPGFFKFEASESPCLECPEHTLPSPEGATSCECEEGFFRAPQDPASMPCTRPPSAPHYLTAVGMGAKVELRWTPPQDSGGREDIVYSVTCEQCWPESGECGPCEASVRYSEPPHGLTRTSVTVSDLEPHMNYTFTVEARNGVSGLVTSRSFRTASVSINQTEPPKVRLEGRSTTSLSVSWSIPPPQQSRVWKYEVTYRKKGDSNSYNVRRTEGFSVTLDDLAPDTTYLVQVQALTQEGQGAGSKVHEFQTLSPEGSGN
# Assay: Interaction analysis (kinetics, KD) of peptides and conjugates against EphA2 by SPR, Biacore T200, single-cycle kinetics (Examples B15 and B22)
# Type: binding
# Procedure, shortened: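 Biacore T200 SPR with Fc-tagged human EphA2 captured via anti-human antibody; running buffer HBS-P+ pH 7.4 with 1% DMSO, 25 °C. Five serial dilutions of peptide or conjugate run by single-cycle kinetics; KD from ka and kd after baseline subtraction.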
# [1] = conjugates, Biacore T200 according to Example B15, Table B16, read-out: SPR Kd
SMILES,pKd,pKd [1],other results
"C[C@H]1NC(=O)CSC[C@@H](C(=O)N[C@H](CCC(=O)O)C(N)=O)NC(=O)[C@H](CCCC(N)=O)NC(=O)[C@H]([C@@H](C)O)NC(=O)[C@H](Cc2cn(C)c3ccccc23)NC(=O)[C@H](CCCCNC(=O)N2CCN(CC(=O)O)CC2)NC(=O)[C@H](Cc2cn(C)c3c(Cl)cccc23)NC(=O)[C@H](CCC(=O)O)N(C)C(=O)[C@H](CCCCNC(=O)[C@@H](Cc2ccccc2)NC(=O)CN2CCN3CCN4CCN(CC2)CC(=O)[O][Lu]([O]C(=O)C3)[O]C(=O)C4)NC(=O)[C@H](C2CCC2)NC(=O)[C@H](CC(N)=O)NC(=O)[C@H](Cc2cccnc2)N(C)C1=O [PDC_EphA2-00027127] ({CH2CO}-[dA][NMe3Pal]N[Gly(cBu)]K([dF-DOTA(Lu)])[NMeE][Trp(1-Me,7-Cl)]K([CO-Piperazinyl(4-CH2COOH)])[Trp(1-Me)]T[Aad](NH2)C[dE]-NH2; thioether N-12)",> 9.00,,
"C[C@@H](O)[C@@H]1NC(=O)[C@H](Cc2cn(C)c3ccccc23)NC(=O)[C@H](CCC(=O)NC[C@H](O)[C@@H](O)[C@H](O)[C@H](O)CO)NC(=O)[C@H](Cc2cn(C)c3c(Cl)cccc23)NC(=O)[C@H](CC(N)=O)N(C)C(=O)[C@H](CCC(=O)NC[C@H](O)[C@@H](O)[C@H](O)[C@H](O)CO)NC(=O)[C@H](C2CCC2)NC(=O)[C@H](CC(N)=O)NC(=O)[C@H](Cc2cccnc2)N(C)C(=O)[C@@H](Cc2cccc(C(N)=O)c2)NC(=O)CSC[C@@H](C(=O)N[C@H](CCCCNC(=O)CN2CCN3CCN4CCN(CC2)CC(=O)[O][Lu]([O]C(=O)C3)[O]C(=O)C4)C(N)=O)NC(=O)[C@H](CCCC(N)=O)NC1=O [PDC_EphA2-00022594-C302] ({CH2CO}-[dPhe(3-CONH2)][NMe3Pal]N[Gly(cBu)]E(NH(1-deoxy-D-glucityl))[NMeN][Trp(1-Me,7-Cl)]E(NH(1-deoxy-D-glucityl))[Trp(1-Me)]T[Aad](NH2)C[dK](DOTA(Lu))-NH2; thioether N-12)",> 9.00,,
"CC(C)C[C@@H]1NC(=O)[C@H](CC(N)=O)NC(=O)[C@H](Cc2cccnc2)N(C)C(=O)[C@@H](Cc2cccc(C(N)=O)c2)NC(=O)CSC[C@@H](C(N)=O)NC(=O)[C@H](CCCC(N)=O)NC(=O)[C@H]([C@@H](C)O)NC(=O)[C@H](Cc2cn(C)c3ccccc23)NC(=O)[C@H](CCCCNC(=O)N2CCN(CC(=O)O)CC2)NC(=O)[C@H](Cc2cn(C)c3c(Cl)cccc23)NC(=O)[C@H](CCC(=O)O)N(C)C(=O)[C@H](CCCCNC(=O)CN2CCN(CC(=O)O)CCN(CC(=O)O)CCN(CC(=O)O)CC2)NC1=O.[Lu+3] [PDC_EphA2-00026717] ({CH2CO}-[dPhe(3-CONH2)][NMe3Pal]NLK(DOTA)[NMeE][Trp(1-Me,7-Cl)]K([CO-Piperazinyl(4-CH2COOH)])[Trp(1-Me)]T[Aad](NH2)C-NH2; thioether N-12)",,> 9.00,
"C[C@@H](O)[C@@H]1NC(=O)[C@H](Cc2cn(C)c3ccccc23)NC(=O)[C@H](CCC(=O)NC[C@H](O)[C@@H](O)[C@H](O)[C@H](O)CO)NC(=O)[C@H](Cc2cn(C)c3c(Cl)cccc23)NC(=O)[C@H](Cc2cccnc2)N(C)C(=O)[C@H](CCCC(N)=O)NC(=O)[C@H](C2CCC2)NC(=O)[C@H](CC(N)=O)NC(=O)[C@H](Cc2cccnc2)N(C)C(=O)[C@@H](Cc2cccc(C(N)=O)c2)NC(=O)CSC[C@@H](C(=O)N[C@H](CCCCNC(=O)CN2CCN(CC(=O)O)CCN(CC(=O)O)CCN(CC(=O)O)CC2)C(N)=O)NC(=O)[C@H](CCCC(N)=O)NC1=O.[Lu+3] [PDC_EphA2-00019437-C302] ({CH2CO}-[dPhe(3-CONH2)][NMe3Pal]N[Gly(cBu)][Aad](NH2)[NMe3Pal][Trp(1-Me,7-Cl)]E(NH(1-deoxy-D-glucityl))[Trp(1-Me)]T[Aad](NH2)C[dK](DOTA)-NH2; thioether N-12)",,> 9.00,
"C[C@H]1NC(=O)CSC[C@@H](C(N)=O)NC(=O)[C@H](CCCCNC(=O)[C@@H](CCC(=O)O)NC(=O)CN2CCN3CCN4CCN(CC2)CC(=O)[O][Lu]([O]C(=O)C3)[O]C(=O)C4)NC(=O)[C@H]([C@@H](C)O)NC(=O)[C@H](Cc2cn(C)c3ccccc23)NC(=O)[C@H](CCCCNC(=O)N2CCN(CC(=O)O)CC2)NC(=O)[C@H](Cc2cn(C)c3c(Cl)cccc23)NC(=O)[C@H](CCC(=O)O)N(C)C(=O)[C@H](CCCC(N)=O)NC(=O)[C@H](C2CCC2)NC(=O)[C@H](CC(N)=O)NC(=O)[C@H](Cc2cccnc2)N(C)C1=O [PDC_EphA2-00027128] ({CH2CO}-[dA][NMe3Pal]N[Gly(cBu)][Aad](NH2)[NMeE][Trp(1-Me,7-Cl)]K([CO-Piperazinyl(4-CH2COOH)])[Trp(1-Me)]TK([dE-DOTA(Lu)])C-NH2; thioether N-12)",> 9.00,,
"C[C@@H](O)[C@@H]1NC(=O)[C@H](Cc2cn(C)c3ccccc23)NC(=O)[C@H](CCCCNC(=O)N2CCN(CC(=O)O)CC2)NC(=O)[C@H](Cc2cn(C)c3c(Cl)cccc23)NC(=O)[C@H](CCC(=O)O)N(C)C(=O)[C@H](CCCC(N)=O)NC(=O)[C@H](C2CCC2)NC(=O)[C@H](CC(N)=O)NC(=O)[C@H](Cc2cccc(C#N)c2)N(C)C(=O)[C@@H](Cc2cccc(C(N)=O)c2)NC(=O)CSC[C@@H](C(=O)N[C@H](CCCCNC(=O)CN2CCN3CCN4CCN(CC2)CC(=O)[O][Lu]([O]C(=O)C3)[O]C(=O)C4)C(N)=O)NC(=O)[C@H](CCCC(N)=O)NC1=O [PDC_EphA2-00022612-C302] ({CH2CO}-[dPhe(3-CONH2)][NMePhe(3-CN)]N[Gly(cBu)][Aad](NH2)[NMeE][Trp(1-Me,7-Cl)]K([CO-Piperazinyl(4-CH2COOH)])[Trp(1-Me)]T[Aad](NH2)C[dK](DOTA(Lu))-NH2; thioether N-12)",> 9.00,,
"C[C@@H](O)[C@@H]1NC(=O)[C@H](Cc2cn(C)c3ccccc23)NC(=O)[C@H](CCCCNC(=O)N2CCN(CC(=O)O)CC2)NC(=O)[C@H](Cc2cn(C)c3c(Cl)cccc23)NC(=O)[C@H](Cc2cccnc2)N(C)C(=O)[C@H](CCCC(N)=O)NC(=O)[C@H](C2CCC2)NC(=O)[C@H](CC(N)=O)NC(=O)[C@H](Cc2cccnc2)N(C)C(=O)[C@@H](Cc2cccc(C(N)=O)c2)NC(=O)CSC[C@@H](C(N)=O)NC(=O)[C@H](CCCC(N)=O)NC1=O [PDC_EphA2-00019438] ({CH2CO}-[dPhe(3-CONH2)][NMe3Pal]N[Gly(cBu)][Aad](NH2)[NMe3Pal][Trp(1-Me,7-Cl)]K([CO-Piperazinyl(4-CH2COOH)])[Trp(1-Me)]T[Aad](NH2)C-NH2; thioether N-12)",,,"pKd (peptides, Biacore T200, 25 °C, Table B12, read-out: SPR Kd): > 9.00"
"CN1C(=O)[C@H](CCC(=O)NC[C@H](O)[C@@H](O)[C@H](O)[C@H](O)CO)NC(=O)[C@H](C2CCC2)NC(=O)[C@H](CC(N)=O)NC(=O)[C@H](Cc2cccnc2)N(C)C(=O)[C@@H](Cc2cccc(C(N)=O)c2)NC(=O)CSC[C@@H](C(=O)N[C@@H](CCCCNC(=O)CN2CCN(CC(=O)O)CCN(CC(=O)O)CCN(CC(=O)O)CC2)C(N)=O)NC(=O)[C@H](Cc2cn(C)c3ccccc23)NC(=O)[C@H](CCCCNC(=O)N2CCN(CC(=O)O)CC2)NC(=O)[C@H](Cc2cn(C)c3c(Cl)cccc23)NC(=O)[C@@H]1Cc1cccnc1.[Lu+3] [PDC_EphA2-00026603-C301] ({CH2CO}-[dPhe(3-CONH2)][NMe3Pal]N[Gly(cBu)]E(NH(1-deoxy-D-glucityl))[NMe3Pal][Trp(1-Me,7-Cl)]K([CO-Piperazinyl(4-CH2COOH)])[Trp(1-Me)]CK(DOTA)-NH2; thioether N-10)",,> 9.00,
"CC(C)C[C@@H]1NC(=O)[C@H](CC(N)=O)NC(=O)[C@H](Cc2cccnc2)N(C)C(=O)[C@@H](Cc2cccc(C(N)=O)c2)NC(=O)CSC[C@@H](C(N)=O)NC(=O)[C@H](CCCC(N)=O)NC(=O)[C@H]([C@@H](C)O)NC(=O)[C@H](Cc2cn(C)c3ccccc23)NC(=O)[C@H](CCCCNC(=O)CN2CCN3CCN4CCN(CC2)CC(=O)[O][Lu]([O]C(=O)C3)[O]C(=O)C4)NC(=O)[C@H](Cc2cn(C)c3c(Cl)cccc23)NC(=O)[C@H](CCC(=O)O)N(C)C(=O)[C@H](CCCC(N)=O)NC1=O [PDC_EphA2-00026718] ({CH2CO}-[dPhe(3-CONH2)][NMe3Pal]NL[Aad](NH2)[NMeE][Trp(1-Me,7-Cl)]K(DOTA(Lu))[Trp(1-Me)]T[Aad](NH2)C-NH2; thioether N-12)",> 9.00,,
"CC(C)C[C@@H]1NC(=O)[C@H](CC(N)=O)NC(=O)[C@H](Cc2cccnc2)N(C)C(=O)[C@@H](Cc2cccc(C(N)=O)c2)NC(=O)CSC[C@@H](C(N)=O)NC(=O)[C@H](CCCCNC(=O)CN2CCN(CC(=O)O)CCN(CC(=O)O)CCN(CC(=O)O)CC2)NC(=O)[C@H]([C@@H](C)O)NC(=O)[C@H](Cc2cn(C)c3ccccc23)NC(=O)[C@H](CCC(=O)NC[C@H](O)[C@@H](O)[C@H](O)[C@H](O)CO)NC(=O)[C@H](Cc2cn(C)c3c(Cl)cccc23)NC(=O)[C@H](CC(N)=O)N(C)C(=O)[C@H](CCCC(N)=O)NC1=O.[Lu+3] [PDC_EphA2-00026716] ({CH2CO}-[dPhe(3-CONH2)][NMe3Pal]NL[Aad](NH2)[NMeN][Trp(1-Me,7-Cl)]E(NH(1-deoxy-D-glucityl))[Trp(1-Me)]TK(DOTA)C-NH2; thioether N-12)",,> 9.00,
"C[C@H]1NC(=O)CSC[C@@H](C(=O)N[C@H](CCC(=O)O)C(N)=O)NC(=O)[C@H](CCCC(N)=O)NC(=O)[C@H]([C@@H](C)O)NC(=O)[C@H](Cc2cn(C)c3ccccc23)NC(=O)[C@H](CCCCNC(=O)N2CCN(CC(=O)O)CC2)NC(=O)[C@H](Cc2cn(C)c3c(Cl)cccc23)NC(=O)[C@H](CCC(=O)O)N(C)C(=O)[C@H](CCCCNC(=O)CN2CCN(CC(=O)O)CCN(CC(=O)O)CCN(CC(=O)O)CC2)NC(=O)[C@H](C2CCC2)NC(=O)[C@H](CC(N)=O)NC(=O)[C@H](Cc2cccnc2)N(C)C1=O.[Lu+3] [PDC_EphA2-00027105] ({CH2CO}-[dA][NMe3Pal]N[Gly(cBu)]K(DOTA)[NMeE][Trp(1-Me,7-Cl)]K([CO-Piperazinyl(4-CH2COOH)])[Trp(1-Me)]T[Aad](NH2)C[dE]-NH2; thioether N-12)",,> 9.00,
